Literature values as cited in US20040009212A1, “Mucoadhesive thermoresponsive medicament-carrier composition” (PHARMA POWER BIOTEC CO. LTD., priority 2002, published 2004).

Tested on: leukoplakia
Details: of 12 leukoplakia patients

For `NCC(=O)CCC(=O)O` [ALA, 5-aminolevulinic acid], the patients having response (topical ALA in 20wt. % eucerin with arabic gum and paraffin, with PDT) is given as 9 patients and the “patients having full response” value (topical ALA with PDT) is given as 5 patients.
